# Test results published in PMC9403987 (Frontiers in Oncology, 2022).
# Tests used:
# Assay in all cases: Cell proliferation assay
# Type in all cases: cell-based, Homo sapiens
# Huh-7 = conditions: Huh-7, liver, hepatocellular carcinoma, 72 hours
# Procedure: (§1) To quantify cell proliferation, either the nuclei of live cells were counted following staining with 4’,6-diamidino-2-phenylindole (DAPI; Sigma-Aldrich, Burlington, MA, USA), or metabolically active cells were detected using a CellTiter-Glo assay (Promega Corporation, Madison, WI, USA). Cells from a range of human and mammalian tumor cell lines (American Type Culture Collection, Manassas, VA, USA) were seeded at 4000 cells per well in 100 μL of culture medium in a 96-well plate and incubated overnight at 37°C with 5% CO2. […] In the DAPI staining method, cells were washed using 1× phosphate-buffered saline (PBS; Gibco Thermo Fisher Scientific, Waltham, MA, USA), fixed with 4% formaldehyde, permeabilized with 0.2% Triton X-100 (Sigma-Aldrich), washed again, and stained with 1 μg/mL DAPI to visualize cell nuclei. Cells were washed with 1× PBS three times, and 100 μL 1× PBS was added to each well. Plates were scanned using an IN Cell Analyzer 2200 (GE Healthcare Life Sciences, Chicago, IL, USA) and the number of cells per well was recorded. In the CellTiter-Glo assay, 60 μL of CellTiter-Glo luminescent solution was added to each well after incubation with the test compounds, and the assay plate was scanned using a Tecan Infinite M1000 PRO microplate reader (Tecan Group AG, Männedorf, Switzerland) to record luminescent signals.
# HCCLM3 = conditions: HCCLM3, liver, hepatocellular carcinoma, 72 hours
# Procedure: as §1
# NCI-H1838 = conditions: NCI-H1838, lung, NSCLC, 72 hours
# Procedure: as §1
# SK-MES-1 = conditions: SK-MES-1, lung carcinoma, 72 hours
# Procedure: as §1
# U251 = conditions: U251, brain, glioblastoma, 72 hours
# Procedure: as §1
# HLE = conditions: liver, hepatocellular carcinoma, 72 hours
# Procedure: as §1
# NCI-H1975 = conditions: NCI-H1975, lung, NSCLC, 72 hours
# Procedure: as §1
# CHP-212 = conditions: CHP-212, brain, neuroblastoma, 72 hours
# Procedure: as §1
# NCI-H1299 = conditions: NCI-H1299, lung, NSCLC, 72 hours
# Procedure: as §1
# Huh-1 = conditions: Huh-1, liver, hepatocellular carcinoma, 72 hours
# Procedure: as §1
# T98G = conditions: brain, glioblastoma, 72 hours
# Procedure: as §1
# KP-N-YN = conditions: neural, neuroblastoma, 72 hours
# Procedure: as §1
# NCI-H358 = conditions: NCI-H358, lung, NSCLC, 72 hours
# Procedure: as §1
# HCC827 = conditions: HCC827, lung carcinoma, 72 hours
# Procedure: as §1
# HTC116 = conditions: HTC116, colorectal carcinoma, 72 hours
# Procedure: as §1
# DLD-2 = conditions: DLD-2, colorectal carcinoma, 72 hours
# Procedure: as §1
# HT29 = conditions: HT29, colon carcinoma, 72 hours
# Procedure: as §1
# U87-MG = conditions: brain, glioblastoma, 72 hours
# Procedure: as §1
# NCI-H292 = conditions: NCI-H292, lung, mucoepidermoid pulmonary carcinoma, 72 hours
# Procedure: as §1
# U118-MG = conditions: brain, glioblastoma, 72 hours
# Procedure: as §1
# KNS-81 = conditions: KNS-81, brain, glioblastoma, 72 hours
# Procedure: as §1
# SK-N-AS = conditions: brain, neuroblastoma, 72 hours
# Procedure: as §1
# MHCC97 = conditions: MHCC97, liver, hepatocellular carcinoma, 72 hours
# Procedure: as §1
# SNU-368 = conditions: SNU-368, liver, hepatocellular carcinoma, 72 hours
# Procedure: as §1
# NCI-H1792 = conditions: NCI-H1792, lung carcinoma, 72 hours
# Procedure: as §1
# SW948 = conditions: SW948, colon carcinoma, 72 hours
# Procedure: as §1
# NCI-H1155 = conditions: NCI-H1155, lung, NSCLC, 72 hours
# Procedure: as §1
# SNU-182 = conditions: SNU-182, liver, hepatocellular carcinoma, 72 hours
# Procedure: as §1
# NCI-H1703 = conditions: NCI-H1703, lung, NSCLC, 72 hours
# Procedure: as §1
smiles,measurement,setting,value
"CCN1CCN(Cc2ccc(Nc3ncc(F)c(-c4cc(F)c5nc(C)n(C(C)C)c5c4)n3)nc2)CC1 [Abemaciclib, abemaciclib, reference compound]",IC50,Huh-7; Homo sapiens,75 nM
same,IC50,HCCLM3; Homo sapiens,3100 nM
same,IC50,NCI-H1838; Homo sapiens,90 nM
same,IC50,SK-MES-1; Homo sapiens,148 nM
same,IC50,"U251; Homo sapiens, U-251",151 nM
same,IC50,HLE; Homo sapiens,389 nM
same,IC50,NCI-H1975; Homo sapiens,112 nM
same,IC50,CHP-212; Homo sapiens,32 nM
same,IC50,NCI-H1299; Homo sapiens,463 nM
same,IC50,Huh-1; Homo sapiens,365 nM
same,IC50,T98G; Homo sapiens,168 nM
same,IC50,KP-N-YN; Homo sapiens,827 nM
same,IC50,NCI-H358; Homo sapiens,44 nM
same,IC50,HCC827; Homo sapiens,16 nM
same,IC50,HTC116; Homo sapiens,76 nM
same,IC50,"DLD-2; Homo sapiens, DLD2",237 nM
same,IC50,"HT29; Homo sapiens, HT-29",1840 nM
same,IC50,"U87-MG; Homo sapiens, U-87 MG",106 nM
same,IC50,NCI-H292; Homo sapiens,149 nM
same,IC50,"U118-MG; Homo sapiens, U-118-MG",86 nM
same,IC50,KNS-81; Homo sapiens,106 nM
same,IC50,SK-N-AS; Homo sapiens,138 nM
same,IC50,MHCC97; Homo sapiens,1100 nM
same,IC50,SNU-368; Homo sapiens,34 nM
same,IC50,NCI-H1792; Homo sapiens,23 nM
same,IC50,SW948; Homo sapiens,586 nM
same,IC50,NCI-H1155; Homo sapiens,2410 nM
same,IC50,SNU-182; Homo sapiens,> 10000 nM
same,IC50,NCI-H1703; Homo sapiens,93 nM
CC1=Nc2c(F)cc(-c3nc(Nc4ccc(C5CCN(C)CC5)cn4)ncc3F)cc2C12CCCC2 [GLR2007],IC50,Huh-7,43 nM
same,IC50,HCCLM3,1840 nM
same,IC50,NCI-H1838,48 nM
same,IC50,SK-MES-1,67 nM
same,IC50,U251,53 nM
same,IC50,HLE,143 nM
same,IC50,NCI-H1975,10 nM
same,IC50,CHP-212,18 nM
same,IC50,NCI-H1299,564 nM
same,IC50,Huh-1,261 nM
same,IC50,T98G,110 nM
same,IC50,KP-N-YN,657 nM
same,IC50,NCI-H358,17 nM
same,IC50,HCC827,15 nM
same,IC50,HTC116,38 nM
same,IC50,DLD-2,33 nM
same,IC50,HT29,601 nM
same,IC50,U87-MG,16 nM
same,IC50,NCI-H292,73 nM
same,IC50,U118-MG,23 nM
same,IC50,KNS-81,33 nM
same,IC50,SK-N-AS,66 nM
same,IC50,MHCC97,353 nM
same,IC50,SNU-368,13 nM
same,IC50,NCI-H1792,3 nM
same,IC50,SW948,189 nM
same,IC50,NCI-H1155,1820 nM
same,IC50,SNU-182,2240 nM
same,IC50,NCI-H1703,3 nM
